Reference: article PMC7031696 (Cell chemical biology, 2019)

Tested on: 3D7-MR4 trophozoite parasite-infected RBCs
Test: Metabolomic profiling (hydrophilic metabolite changes, UHPLC-MS)
Format: cell-based, Plasmodium falciparum

CN(C)Cc1ccc(-c2cc3c(-c4ccc(CN(C)C)cc4)ccnc3[nH]2)cc1.O=C(O)C(F)(F)F [MMV022224]
peptide levels (hemoglobin catabolism signature) (10 × IC50^72h, 2.5 hr, trophozoites): increased levels of peptides
Log2(fold changes) 1_3-Bisphosphoglyceric acid (metabolite 1_3-Bisphosphoglyceric acid, log2 fold change): 0.0000
Log2(fold changes) 2-Hydroxy-2-methylbutanedioic acid (metabolite 2-Hydroxy-2-methylbutanedioic acid, log2 fold change): 0.1756
Log2(fold changes) 2-Isopropylmalic acid (metabolite 2-Isopropylmalic acid, log2 fold change): 0.0000
Log2(fold changes) 2-dehydro-D-gluconate (metabolite 2-dehydro-D-gluconate, log2 fold change): 0.3564
Log2(fold changes) 2-oxo-4-methylthiobutanoate (metabolite 2-oxo-4-methylthiobutanoate, log2 fold change): 0.0000
Log2(fold changes) 2_3-Diphosphoglyceric acid (metabolite 2_3-Diphosphoglyceric acid, log2 fold change): -0.1549
Log2(fold changes) 3-phosphoglycerate (metabolite 3-phosphoglycerate, log2 fold change): -0.0795
Log2(fold changes) 3-phosphoserine (metabolite 3-phosphoserine, log2 fold change): -0.1712
Log2(fold changes) 4-Pyridoxic acid (metabolite 4-Pyridoxic acid, log2 fold change): 0.0566
Log2(fold changes) 4-aminobutyrate (metabolite 4-aminobutyrate, log2 fold change): -0.2938
Log2(fold changes) 4-phosphopantetheine (metabolite 4-phosphopantetheine, log2 fold change): -0.5209
Log2(fold changes) 4-phosphopantothenate (metabolite 4-phosphopantothenate, log2 fold change): 0.0735
Log2(fold changes) 5-aminopentanoic acid (metabolite 5-aminopentanoic acid, log2 fold change): 0.0000
Log2(fold changes) 5-methyl-THF (metabolite 5-methyl-THF, log2 fold change): 0.0000
Log2(fold changes) 5-phosphoribosyl-1-pyrophosphate (metabolite 5-phosphoribosyl-1-pyrophosphate, log2 fold change): -0.7551
Log2(fold changes) 6-phospho-D-gluconate (metabolite 6-phospho-D-gluconate, log2 fold change): -0.0328
Log2(fold changes) ADP-D-glucose (metabolite ADP-D-glucose, log2 fold change): 0.0037
Log2(fold changes) Acetyl-glycine (metabolite Acetyl-glycine, log2 fold change): 0.0000
Log2(fold changes) Acetyllysine (metabolite Acetyllysine, log2 fold change): 0.0000
Log2(fold changes) Aminoadipic acid (metabolite Aminoadipic acid, log2 fold change): 0.0000
Log2(fold changes) CDP (metabolite CDP, log2 fold change): -0.4119
Log2(fold changes) CDP-choline (metabolite CDP-choline, log2 fold change): 0.2972
Log2(fold changes) CDP-ethanolamine (metabolite CDP-ethanolamine, log2 fold change): 0.0000
Log2(fold change) of CMP (metabolite CMP): 0.3976
Log2(fold change) of CTP (metabolite CTP): -0.2057
Log2(fold changes) Citraconic acid (metabolite Citraconic acid, log2 fold change): 0.0000
Log2(fold change) of D-glucarate (metabolite D-glucarate): 0.0159
Log2(fold change) of D-gluconate (metabolite D-gluconate): -0.4042
Log2(fold change) of D-glucosamine-1/6-phosphate (metabolite D-glucosamine-1/6-phosphate): 0.0000
Log2(fold change) of D-sedoheptulose-1/7-phosphate (metabolite D-sedoheptulose-1/7-phosphate): 0.3067
Log2(fold change) of DL-Pipecolic Acid (metabolite DL-Pipecolic Acid): 0.0000
Log2(fold change) of DLH (metabolite DLH): 0.8439
Log2(fold change) of DLS (metabolite DLS): 0.5887
Log2(fold change) of Decanoyl-CoA (metabolite Decanoyl-CoA): 0.0000
Log2(fold change) of EV (metabolite EV): 0.0000
Log2(fold change) of FAD (metabolite FAD): 0.8383
Log2(fold change) of FMN (metabolite FMN): 0.1361
Log2(fold change) of G3P/DHAP (metabolite G3P/DHAP): 0.0585
Log2(fold change) of GDP (metabolite GDP): -0.5545
Log2(fold change) GMP (metabolite GMP): -0.0052
Log2(fold change) GTP (metabolite GTP): -0.2843
Log2(fold change) HVDD (metabolite HVDD): 0.7226
Log2(fold change) Hexose (metabolite Hexose): 0.3496
Log2(fold change) Hydroxyisocaproic acid (metabolite Hydroxyisocaproic acid): 0.0000
Log2(fold change) IDP (metabolite IDP): 0.0000
Log2(fold change) IMP (metabolite IMP): 0.0372
Log2(fold change) Inositol (metabolite Inositol): 0.0000
Log2(fold change) Isopentyl-PP (metabolite Isopentyl-PP): 0.0000
Log2(fold change) L-arginino-succinate (metabolite L-arginino-succinate): -0.1932
Log2(fold change) LD (metabolite LD): 0.8668
Log2(fold change) Myristoyl/tetradecanoyl-CoA (metabolite Myristoyl/tetradecanoyl-CoA): 0.0000
Log2(fold change) N-Acetyl-L-alanine (metabolite N-Acetyl-L-alanine): -0.6716
Log2(fold change) N-acetyl-L-ornithine (metabolite N-acetyl-L-ornithine): 0.0000
Log2(fold change) N-acetyl-glucosamine-1/6-phosphate (metabolite N-acetyl-glucosamine-1/6-phosphate): -0.1039
Log2(fold change) N-acetyl-glutamate (metabolite N-acetyl-glutamate): -0.3449
Log2(fold change) N-acetyl-glutamine (metabolite N-acetyl-glutamine): -1.3853
Log2(fold change) N-carbamoyl-L-aspartate (metabolite N-carbamoyl-L-aspartate): -0.1955
Log2(fold change) NAD+ (metabolite NAD+): -0.0358
Log2(fold change) NADH (metabolite NADH): 1.5825
Log2(fold change) NADP+ (metabolite NADP+): 0.0717
Log2(fold change) NADPH (metabolite NADPH): 1.3580
Log2(fold change) O-acetyl-L-serine (metabolite O-acetyl-L-serine): 0.0000
Log2(fold change) Octoluse 8/1P (metabolite Octoluse 8/1P): 0.5111
Log2(fold change) Octoluse Bisphosphate (metabolite Octoluse Bisphosphate): -0.3203
Log2(fold change) PD (metabolite PD): -0.9637
Log2(fold change) PE (metabolite PE): 0.0520
Log2(fold change) PEE (metabolite PEE): 0.3860
Log2(fold change) PEEK (metabolite PEEK): 1.9585
Log2(fold change) PVNF (metabolite PVNF): 0.5887
Log2(fold change) Pyroglutamic acid (metabolite Pyroglutamic acid): -0.2368
Log2(fold change) Pyrophosphate (metabolite Pyrophosphate): 0.0000
Log2(fold change) Ribose-5-phosphate (metabolite Ribose-5-phosphate): -0.2008
Log2(fold change) S-adenosyl-L-homocysteine (metabolite S-adenosyl-L-homocysteine): 0.3352
Log2(fold change) S-adenosyl-L-methioninamine (metabolite S-adenosyl-L-methioninamine): 0.0000
Log2(fold change) S-adenosyl-L-methionine (metabolite S-adenosyl-L-methionine): 0.0000
Log2(fold change) S-methyl-5'-thioadenosine (metabolite S-methyl-5'-thioadenosine): 0.2721
Log2(fold change) SD (metabolite SD): -0.1612
Log2(fold change) SDL (metabolite SDL): 0.5371
Log2(fold change) SID (metabolite SID): 0.0000
Log2(fold change) Sedoheptulose bisphosphate (metabolite Sedoheptulose bisphosphate): 0.0035
Log2(fold change) Thiamine pyrophosphate (metabolite Thiamine pyrophosphate): -0.0731
Log2(fold changes) UDP-D-glucose (metabolite UDP-D-glucose, log2 fold change): 0.0091
Log2(fold changes) UDP-D-glucuronate (metabolite UDP-D-glucuronate, log2 fold change): -0.1151
Log2(fold changes) UDP-N-acetyl-glucosamine (metabolite UDP-N-acetyl-glucosamine, log2 fold change): -0.0367
Log2(fold changes) UDP (metabolite UDP, log2 fold change): -0.5308
Log2(fold changes) UMP (metabolite UMP, log2 fold change): 0.0364
Log2(fold changes) UTP (metabolite UTP, log2 fold change): -0.1207
Log2(fold changes) VD (metabolite VD, log2 fold change): 0.0000
Log2(fold changes) Xanthurenic acid (metabolite Xanthurenic acid, log2 fold change): 0.0000
Log2(fold changes) a-ketoglutarate (metabolite a-ketoglutarate, log2 fold change): -0.4532
Log2(fold changes) acetyl-CoA (metabolite acetyl-CoA, log2 fold change): -0.3299
Log2(fold changes) acetyl-aspartate (metabolite acetyl-aspartate, log2 fold change): -0.2105
Log2(fold changes) acetylphosphate (metabolite acetylphosphate, log2 fold change): 0.0000
Log2(fold changes) aconitate (metabolite aconitate, log2 fold change): -0.2855
Log2(fold changes) adenine (metabolite adenine, log2 fold change): 0.0812
Log2(fold changes) adenosine 5'-phosphosulfate (metabolite adenosine 5'-phosphosulfate, log2 fold change): 0.0000
